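Dose response: 5 concentrations. Exposure: 48 h. Format: 96-well plates. Endpoint: linear interpolation; highest concentration if not reached. TGI denotes the concentration required for complete inhibition of growth.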
Experiments:
Assay in all cases: NCI-60 cell line screen, 48 h
UACC-257 melanoma = test system: UACC-257 melanoma
SF-295 CNS = test system: SF-295 CNS
NCI-H226 lung = test system: NCI-H226 lung
HL-60(TB) leukemia = test system: HL-60(TB) leukemia
SN12C renal = test system: SN12C renal
BT-549 breast = test system: BT-549 breast
U251 CNS = test system: U251 CNS
MOLT-4 leukemia = test system: MOLT-4 leukemia
SW-620 colon = test system: SW-620 colon
LOX IMVI melanoma = test system: LOX IMVI melanoma
HS 578T breast = test system: HS 578T breast
SK-MEL-2 melanoma = test system: SK-MEL-2 melanoma

| Structure (SMILES) | TGI (UACC-257 melanoma) | TGI (SF-295 CNS) | TGI (NCI-H226 lung) | TGI (HL-60(TB) leukemia) | TGI (SN12C renal) | TGI (BT-549 breast) | TGI (U251 CNS) | TGI (MOLT-4 leukemia) | TGI (SW-620 colon) | TGI (LOX IMVI melanoma) | TGI (HS 578T breast) | TGI (SK-MEL-2 melanoma) |
| --- | --- | --- | --- | --- | --- | --- | --- | --- | --- | --- | --- | --- |
| CN(C)Cc1cc(N=Nc2ccccc2)cc(CN(C)C)c1O | > 100 µM | > 100 µM | > 100 µM | 66.9 µM | > 100 µM | > 100 µM | > 100 µM | > 100 µM | > 100 µM | > 100 µM | > 100 µM | > 100 µM |
| c1ccc(CSc2nc(N3CCOCC3)c3cn[nH]c3n2)cc1 | 29.9 µM | 78 µM | 73.1 µM | > 100 µM | 37.7 µM | 40.3 µM | 63.2 µM | > 100 µM | 64.8 µM | 44.1 µM | 39.3 µM | 34 µM |
| CC[C@@H](/C=C\CCC1(C[C@H](O)CCC=C(C)C)OCCO1)O[Si](C(C)C)(C(C)C)C(C)C | 65.2 µM | 43.1 µM | 35.9 µM | 38.4 µM | 32.8 µM | 63.6 µM | 31.1 µM | 45.4 µM | 73.9 µM | 38.8 µM | 80.5 µM | 30.7 µM |
